Key:
[1] = tested on: OPM-2 human multiple myeloma cell line; experiment: Cell Viability Assay (OPM-2 10 FBS); format: cell-based; conditions: OPM-2 cells, CellTiter-Glo
How it was run: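 ATP-based luminescence (CellTiter-Glo) measured after a 16 h compound treatment of OPM-2 cells seeded at 3000 cells/well in 10% FBS medium. IC50 values derived by 4-parameter logistic fitting of serial dilutions.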

[2] = target: T1, Mcl-1/Bim interaction, recombinant human Mcl-1 (171-327) (Homo sapiens, UniProt Q07820); experiment: Cell free Mcl-1: Bim Affinity Assay (Mcl-1 HTRF); format: binding
T1 construct: made in house
T1 sequence (Q07820 171-327): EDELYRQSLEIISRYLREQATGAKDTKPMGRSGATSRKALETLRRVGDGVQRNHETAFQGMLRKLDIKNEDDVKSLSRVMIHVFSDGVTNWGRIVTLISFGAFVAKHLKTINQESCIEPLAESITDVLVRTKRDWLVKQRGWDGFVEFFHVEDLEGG
How it was run: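 Read-out is time-resolved FRET after overnight incubation, using a biotin-labelled peptide from human Bim (51-76) as the binding partner; IC50 was derived from competition curves.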

[3] = cell free Mcl-1:Bim TR-FRET, recombinant human Mcl-1 (171-327)
[4] = TR-FRET, 0.1 nM Mcl-1 (171-327), 0.05 nM biotin-Bim (51-76)
[5] = Homo sapiens, OPM-2, 16 h, 16 h

SMILES | IC50 [2, 3] [nM] | IC50 [2, 4] [nM] | IC50 [1, 5] [nM] | IC50 ([1]; 16 h) [nM] | IC50 ([1]; 16 h incubation) [nM]
O=C1NS(=O)(=O)C[C@@H]2C[C@@H]2/C=C/[C@H](O)[C@@H]2CC[C@H]2CN2C[C@@]3(CCCc4cc(Cl)ccc43)COc3ccc1cc32 (single isomer, unassigned) [Example 785] | 3.02 |  |  | 16000 | 
CC[C@@H]1CC/C=C/[C@H](OC)[C@@H]2CC[C@H]2CN2C[C@@]3(CCCc4cc(Cl)ccc43)COc3cc(F)c(cc32)C(=O)NS1(=O)=O [Example 701, (1S,3′R,6′R,7′S,8′E,12′R)-6-chloro-12′-ethyl-17′-fluoro-7′-methoxy-3,4-dihydro-2H,15′H-spiro[naphthalene-1,22′-[20]oxa[13]thia[1,14]diazatetracyclo[14.7.2.0^3,6.0^19,24]pentacosa [8,16,18,24]tetraen]-15′-one 13′,13′-dioxide] | 1.44 |  | 2020 |  | 
O=C1NS(=O)(=O)CCC[C@]2(O)CCO[C@H](C2)[C@@H]2CC[C@H]2CN2C[C@@]3(CCCc4cc(Cl)ccc43)COc3ccc1cc32 (single isomer, unassigned) [Example 901] | 0.568 |  |  | 5500 | 
CC[C@@H]1CC[C@H](O)/C=C/[C@@H]2CC[C@H]2CN2C[C@@]3(CCCc4cc(Cl)ccc43)COc3ccc(cc32)C(=O)NS1(=O)=O (single isomer, unassigned) [Example 197] |  | 1.12 |  | 2600 | 
COCCOCC[C@@H]1[C@@H](C)C/C=C/[C@H](O)[C@@H]2CC[C@H]2CN2C[C@@]3(CCCc4cc(Cl)ccc43)COc3ccc(cc32)C(=O)NS1(=O)=O (single isomer, unassigned) [Example 399] |  | 0.239 |  | 165 | 
C[C@@H]1[C@@H](C)C/C=C/[C@H](OCCN2CC3(COC3)C2)[C@@H]2CC[C@H]2CN2C[C@@]3(CCCc4cc(Cl)ccc43)COc3ccc(cc32)C(=O)NS1(=O)=O [Example 518, (1S,3′R,6′R,7′S,8′E,11′S,12′R)-6-chloro-11′,12′-dimethyl-7′-(2-(2-oxa-6-azaspiro[3.3]hept-6-yl)ethoxy)-3,4-dihydro-2H,15′H-spiro[naphthalene-1,22′-[20]oxa[13]thia[1,14]diazatetracyclo[14.7.2.0^3,6.0^19,24]pentacosa [8,16,18,24]tetraen]-15′-one 13′,13′-dioxide] | 0.49 |  | 257 |  | 
CO[C@H]1/C=C/[C@@H]2CCC[C@H](C2)S(=O)(=O)NC(=O)c2ccc3c(c2)N(C[C@@H]2CC[C@H]21)C[C@@]1(CCCc2cc(Cl)ccc21)CO3 (single isomer, unassigned) [Example 108] |  | 1.13 |  | 2250 | 
C[C@H]1C/C=C/[C@H](O)[C@@H]2CC[C@H]2CN2C[C@@]3(CCCc4cc(Cl)ccc43)COc3ccc(cc32)C(=O)NS(=O)(=O)N1CCN(C)C [Example 76, (1S,3′R,6′R,7′S,8′E,11′S)-6-chloro-12′-(2-(dimethylamino)ethyl)-7′-hydroxy-11′-methyl-3,4-dihydro-2H,15′H-spiro[naphthalene-1,22′-[20]oxa[13]thia[1,12,14]triazatetracyclo[14.7.2.0^3,6.0^19,24]pentacosa[8,16,18,24]tetraen]-15′-one 13′,13′-dioxide] |  | 0.405 | 146 |  | 
C[C@@]12C/C=C/[C@H](O)[C@@H]3CC[C@H]3CN3C[C@@]4(CCCc5cc(Cl)ccc54)COc4ccc(cc43)C(=O)NS(=O)(=O)[C@H]1CCC2 (single isomer, unassigned) [Example 130] |  | 0.386 |  | 228 | 
COCC[C@@H]1C[C@H](C)/C=C/[C@H](O)[C@@H]2CC[C@H]2CN2C[C@@]3(CCCc4cc(Cl)ccc43)COc3ccc(cc32)C(=O)NS1(=O)=O (single isomer, unassigned) [Example 478] | 0.197 |  |  | 468 | 
C[C@H]1C/C=C/[C@H](O)[C@@H]2CC[C@H]2CN2C[C@@]3(CCCc4cc(Cl)ccc43)COc3ccc(cc32)C(=O)NS(=O)(=O)N1Cc1ccccn1 (single isomer, unassigned) [Example 667] | 0.244 |  |  | 378 | 
CC[C@@H]1C[C@@H](C)/C=C/[C@H](O)[C@@H]2CC[C@H]2CN2C[C@@]3(CCCc4cc(Cl)ccc43)COc3ccc(cc32)C(=O)NS1(=O)=O (single isomer, unassigned) [Example 1023] |  | 0.307 |  |  | 501

Second part, led by results:

IC50 [2, 3] [nM] | IC50 [2, 4] [nM] | IC50 [1, 5] [nM] | SMILES | IC50 ([1]; 16 h) [nM] | IC50 ([1]; 16 h incubation) [nM]
0.193 |  |  | C[C@@H](O)C[C@@H]1CC/C=C/[C@H](O)[C@@H]2CC[C@H]2CN2C[C@@]3(CCCc4cc(Cl)ccc43)COc3ccc(cc32)C(=O)NS1(=O)=O (single isomer, unassigned) [Example 544] | 1520 | 
 | 0.945 |  | CC[C@@H]1C[C@H](C)/C=C/[C@H](OCCN2CCOCC2)[C@@H]2CC[C@H]2CN2C[C@@]3(CCCc4cc(Cl)ccc43)COc3ccc(cc32)C(=O)NS1(=O)=O (single isomer, unassigned) [Example 1027] |  | 218
 | 0.728 | 810 | COCCN1[C@@H](C)C/C=C\[C@H](O)[C@@H]2CC[C@H]2CN2C[C@@]3(CCCc4cc(Cl)ccc43)COc3ccc(cc32)C(=O)NS1(=O)=O (single isomer, unassigned) [Example 63] |  | 
0.275 |  | 8490 | NC(=O)OC[C@@H]1CC/C=C/[C@H](O)[C@@H]2CC[C@H]2CN2C[C@@]3(CCCc4cc(Cl)ccc43)COc3ccc(cc32)C(=O)NS1(=O)=O (single isomer, unassigned) [Example 611] |  | 
0.113 |  | 11200 | CC[C@@H]1C/C=C/[C@H](OCC(=O)O)[C@@H]2CC[C@H]2CN2C[C@@]3(CCCc4cc(Cl)ccc43)COc3ccc(cc32)C(=O)NS1(=O)=O [Example 764, (((1S,3′R,6′R,7′S,8′E,11′R)-6-chloro-11′-ethyl-12′,12′-dioxido-14′-oxo-3,4-dihydro-2H-spiro[naphthalene-1,21′-[19]oxa[12]thia[1,13]diazatetracyclo[13.7.2.0^3,6.0^18,23]tetracosa[8,15,17,23]tetraen]-7′-yl)oxy)acetic Acid] |  | 
 | 0.666 | 798 | CCN1CC/C=C/[C@H](OCC(=O)N2CCCC2)[C@@H]2CC[C@H]2CN2C[C@@]3(CCCc4cc(Cl)ccc43)COc3ccc(cc32)C(=O)NS1(=O)=O [Example 89, (1S,3′R,6′R,7′S,8′E)-6-chloro-12′-ethyl-7′-(2-oxo-2-(1-pyrrolidinyl)ethoxy)-3,4-dihydro-2H,15′H-spiro[naphthalene-1,22′-[20]oxa[13]thia[1,12,14]triazatetracyclo[14.7.2.0^3,6.0^19,24]pentacosa[8,16,18,24]tetraen]-15′-one 13′,13′-dioxide] |  | 
3.37 |  |  | COC[C@@H](O)C[C@@H]1CC/C=C/[C@H](OC)[C@@H]2CC[C@H]2CN2C[C@@]3(CCCc4cc(Cl)ccc43)COc3ccc(cc32)C(=O)NS1(=O)=O (single isomer, unassigned) [Example 659] | 10900 | 
 | 0.127 | 302 | COC1CN(C(=O)CO[C@H]2/C=C/C[C@H](C)[C@@H](C)S(=O)(=O)NC(=O)c3ccc4c(c3)N(C[C@@H]3CC[C@H]32)C[C@@]2(CCCc3cc(Cl)ccc32)CO4)C1 [Example 307, (1S,3′R,6′R,7′S,8′E,11′S,12′R)-6-chloro-7′-(2-(3-methoxy-1-azetidinyl)-2-oxoethoxy)-11′,12′-dimethyl-3,4-dihydro-2H,15′H-spiro[naphthalene-1,22′-[20]oxa[13]thia[1,14]diazatetracyclo[14.7.2.0^3,6.0^19,24]pentacosa [8,16,18,24]tetraen]-15′-one 13′,13′-dioxide] |  | 
